Experiment [1] has as its target T1, Inhibitor of nuclear factor kappa-B kinase subunit epsilon (Homo sapiens) (UniProt Q14164).
T1 sequence (whole entry): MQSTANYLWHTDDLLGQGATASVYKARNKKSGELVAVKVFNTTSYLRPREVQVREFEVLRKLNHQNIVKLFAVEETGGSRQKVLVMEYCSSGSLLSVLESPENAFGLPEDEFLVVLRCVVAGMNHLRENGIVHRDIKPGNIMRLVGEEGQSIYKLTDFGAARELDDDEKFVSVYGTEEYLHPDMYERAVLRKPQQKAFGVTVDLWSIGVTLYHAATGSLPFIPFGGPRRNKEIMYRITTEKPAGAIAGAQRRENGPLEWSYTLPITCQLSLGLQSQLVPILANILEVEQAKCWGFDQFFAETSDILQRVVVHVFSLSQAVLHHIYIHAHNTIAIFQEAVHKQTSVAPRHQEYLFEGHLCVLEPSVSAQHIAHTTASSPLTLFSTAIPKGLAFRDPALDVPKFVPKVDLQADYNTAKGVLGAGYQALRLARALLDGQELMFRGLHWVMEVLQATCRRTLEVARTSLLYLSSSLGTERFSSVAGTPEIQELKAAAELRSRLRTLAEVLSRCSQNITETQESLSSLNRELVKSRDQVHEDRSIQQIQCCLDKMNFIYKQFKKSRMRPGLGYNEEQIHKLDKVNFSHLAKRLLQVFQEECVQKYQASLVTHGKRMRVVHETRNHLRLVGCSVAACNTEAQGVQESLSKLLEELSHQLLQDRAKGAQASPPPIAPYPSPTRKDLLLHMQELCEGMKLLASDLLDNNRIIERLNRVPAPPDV
Description: Inhibition of IKKe Lys2 labeling site in human Huh-7 cells at 1 uM by KiNativ Profiling analysis relative to control. It is filed as cell-based.

Experiment [2] has as its target Interleukin-1 receptor-associated kinase 1 (Homo sapiens) (UniProt P51617). Description: Inhibition of IRAK1 Lys2 labeling site in human Huh-7 cell lysate at 1 uM by KiNativ Profiling analysis relative to control. It is filed as subcellular.
Experiment [3] addresses Insulin-like growth factor 1 receptor (Homo sapiens) (UniProt P08069). Description: Inhibition of IGF1R (unknown origin) at 1 uM by Ambit Kinomescan binding assay relative to control; values are per cent of control.
The target of experiment [4] is T2, Serine/threonine-protein kinase ULK3 (Homo sapiens) (UniProt Q6PHR2).
T2 sequence (whole entry): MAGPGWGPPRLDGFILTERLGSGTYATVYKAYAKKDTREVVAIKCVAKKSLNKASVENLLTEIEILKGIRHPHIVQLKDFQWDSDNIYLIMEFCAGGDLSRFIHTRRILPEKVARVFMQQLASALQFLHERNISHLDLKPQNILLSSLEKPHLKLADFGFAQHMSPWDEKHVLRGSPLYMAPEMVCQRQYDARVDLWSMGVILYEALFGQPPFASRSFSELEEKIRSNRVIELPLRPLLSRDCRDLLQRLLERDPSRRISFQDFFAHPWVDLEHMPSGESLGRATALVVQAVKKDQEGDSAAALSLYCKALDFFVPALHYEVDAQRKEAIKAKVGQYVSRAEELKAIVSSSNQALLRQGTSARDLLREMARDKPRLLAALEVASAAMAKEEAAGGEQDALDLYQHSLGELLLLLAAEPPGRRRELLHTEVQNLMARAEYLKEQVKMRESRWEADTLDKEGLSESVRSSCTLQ
Description: Inhibition of ULK3 Lys2 labeling site in human A-375 cells at 0.05 uM by KiNativ Profiling analysis relative to control. It is filed as cell-based.

For experiment [5], the target named is T3, Inhibitor of nuclear factor kappa-B kinase subunit alpha (Homo sapiens) (UniProt O15111).
T3 sequence (whole entry): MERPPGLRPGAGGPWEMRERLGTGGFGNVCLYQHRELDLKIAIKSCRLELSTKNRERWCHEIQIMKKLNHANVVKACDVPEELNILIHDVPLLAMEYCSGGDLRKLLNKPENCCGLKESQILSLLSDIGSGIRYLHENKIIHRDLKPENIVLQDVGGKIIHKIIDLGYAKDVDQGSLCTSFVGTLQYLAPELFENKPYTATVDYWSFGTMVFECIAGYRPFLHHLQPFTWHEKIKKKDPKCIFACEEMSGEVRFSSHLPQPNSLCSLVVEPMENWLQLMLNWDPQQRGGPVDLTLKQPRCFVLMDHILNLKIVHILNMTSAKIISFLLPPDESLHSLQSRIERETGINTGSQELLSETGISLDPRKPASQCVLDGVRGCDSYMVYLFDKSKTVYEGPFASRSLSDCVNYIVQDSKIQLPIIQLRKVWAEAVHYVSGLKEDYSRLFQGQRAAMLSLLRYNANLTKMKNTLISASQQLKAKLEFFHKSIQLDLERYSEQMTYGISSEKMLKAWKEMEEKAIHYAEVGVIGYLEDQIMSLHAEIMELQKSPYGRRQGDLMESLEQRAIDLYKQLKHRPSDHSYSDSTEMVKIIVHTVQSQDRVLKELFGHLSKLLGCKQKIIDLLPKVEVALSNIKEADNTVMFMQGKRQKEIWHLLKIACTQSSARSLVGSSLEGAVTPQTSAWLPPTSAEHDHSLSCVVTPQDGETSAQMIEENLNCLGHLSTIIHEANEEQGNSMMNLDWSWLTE
Description: Inhibition of IKK-alpha (unknown origin) at 10 uM by Ambit Kinomescan binding assay relative to control; values are per cent of control.

In experiment [6] the target is Serine/threonine-protein kinase DCLK3 (Homo sapiens) (UniProt Q9C098). Description: Inhibition of DCAMKL3 (unknown origin) at 10 uM by Ambit Kinomescan binding assay.
Serine/threonine-protein kinase DCLK3 (Homo sapiens), sequence (Q9C098 whole entry): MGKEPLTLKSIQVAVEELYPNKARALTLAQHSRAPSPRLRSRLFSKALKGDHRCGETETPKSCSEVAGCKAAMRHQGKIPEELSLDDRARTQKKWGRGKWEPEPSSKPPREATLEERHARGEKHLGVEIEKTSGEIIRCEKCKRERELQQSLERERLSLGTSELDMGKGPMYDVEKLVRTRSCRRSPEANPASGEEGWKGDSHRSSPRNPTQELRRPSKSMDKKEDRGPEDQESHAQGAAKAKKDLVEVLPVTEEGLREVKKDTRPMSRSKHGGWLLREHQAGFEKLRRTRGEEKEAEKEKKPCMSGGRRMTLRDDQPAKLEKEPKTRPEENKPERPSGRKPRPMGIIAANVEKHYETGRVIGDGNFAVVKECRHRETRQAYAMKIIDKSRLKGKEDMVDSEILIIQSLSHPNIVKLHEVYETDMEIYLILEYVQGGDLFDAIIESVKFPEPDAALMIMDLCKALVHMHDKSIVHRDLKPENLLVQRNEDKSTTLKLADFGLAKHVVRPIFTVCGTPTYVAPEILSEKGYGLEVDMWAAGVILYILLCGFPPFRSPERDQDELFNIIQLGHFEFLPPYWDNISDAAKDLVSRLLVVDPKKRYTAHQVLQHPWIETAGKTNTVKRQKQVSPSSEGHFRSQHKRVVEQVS
In experiment [7] the target is T1, Inhibitor of nuclear factor kappa-B kinase subunit epsilon (Homo sapiens). Description: Inhibition of IKKe K2 labeling site in human Huh-7 cells at 10 uM by KiNativ Profiling analysis relative to control. It is filed as cell-based.
Experiment [8] addresses 5'-AMP-activated protein kinase catalytic subunit alpha-1 (Homo sapiens) (UniProt Q13131). Description: Inhibition of AMPK-alpha1 (unknown origin) at 10 uM by Ambit Kinomescan binding assay relative to control.
Experiment [9] concerns the target T4, Aurora kinase A (Homo sapiens) (UniProt O14965).
T4 sequence (whole entry): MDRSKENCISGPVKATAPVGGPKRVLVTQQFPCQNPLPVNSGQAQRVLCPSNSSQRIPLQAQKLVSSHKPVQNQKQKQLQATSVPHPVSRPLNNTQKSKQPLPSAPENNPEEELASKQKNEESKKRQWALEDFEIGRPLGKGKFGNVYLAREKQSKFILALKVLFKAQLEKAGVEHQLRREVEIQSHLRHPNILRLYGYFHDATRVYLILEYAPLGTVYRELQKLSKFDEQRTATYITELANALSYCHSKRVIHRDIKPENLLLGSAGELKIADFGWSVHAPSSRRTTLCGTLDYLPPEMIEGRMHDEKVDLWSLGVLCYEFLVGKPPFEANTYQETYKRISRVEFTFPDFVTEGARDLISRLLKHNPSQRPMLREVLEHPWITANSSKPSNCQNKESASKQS
Description: Inhibition of AurA K2 labeling site harbouring DIKPENLLLGSAGELK in human Huh-7 cells at 1 uM by KiNativ Profiling analysis relative to control. It is filed as cell-based.

SMILES strings stand for the structures. Calls of active or inactive are those of the source. No cut-off for these calls is given here.

5'-AMP-activated protein kinase catalytic subunit alpha-1 (Homo sapiens), sequence (Q13131 whole entry, looked up): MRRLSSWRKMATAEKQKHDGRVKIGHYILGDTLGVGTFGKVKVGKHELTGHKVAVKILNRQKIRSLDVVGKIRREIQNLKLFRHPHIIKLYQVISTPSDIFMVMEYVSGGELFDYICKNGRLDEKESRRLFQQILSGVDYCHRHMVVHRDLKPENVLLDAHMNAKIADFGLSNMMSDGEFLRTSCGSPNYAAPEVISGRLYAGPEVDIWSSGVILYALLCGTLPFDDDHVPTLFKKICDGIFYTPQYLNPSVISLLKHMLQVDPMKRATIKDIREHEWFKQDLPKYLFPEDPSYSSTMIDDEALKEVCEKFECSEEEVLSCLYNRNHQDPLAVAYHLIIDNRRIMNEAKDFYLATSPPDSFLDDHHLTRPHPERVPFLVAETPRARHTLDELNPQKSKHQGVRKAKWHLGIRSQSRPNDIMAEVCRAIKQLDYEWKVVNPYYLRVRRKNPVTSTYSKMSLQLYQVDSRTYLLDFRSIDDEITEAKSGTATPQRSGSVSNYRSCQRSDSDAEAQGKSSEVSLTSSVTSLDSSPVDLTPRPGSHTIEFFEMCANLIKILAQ
Interleukin-1 receptor-associated kinase 1 (Homo sapiens), sequence (P51617 whole entry, looked up): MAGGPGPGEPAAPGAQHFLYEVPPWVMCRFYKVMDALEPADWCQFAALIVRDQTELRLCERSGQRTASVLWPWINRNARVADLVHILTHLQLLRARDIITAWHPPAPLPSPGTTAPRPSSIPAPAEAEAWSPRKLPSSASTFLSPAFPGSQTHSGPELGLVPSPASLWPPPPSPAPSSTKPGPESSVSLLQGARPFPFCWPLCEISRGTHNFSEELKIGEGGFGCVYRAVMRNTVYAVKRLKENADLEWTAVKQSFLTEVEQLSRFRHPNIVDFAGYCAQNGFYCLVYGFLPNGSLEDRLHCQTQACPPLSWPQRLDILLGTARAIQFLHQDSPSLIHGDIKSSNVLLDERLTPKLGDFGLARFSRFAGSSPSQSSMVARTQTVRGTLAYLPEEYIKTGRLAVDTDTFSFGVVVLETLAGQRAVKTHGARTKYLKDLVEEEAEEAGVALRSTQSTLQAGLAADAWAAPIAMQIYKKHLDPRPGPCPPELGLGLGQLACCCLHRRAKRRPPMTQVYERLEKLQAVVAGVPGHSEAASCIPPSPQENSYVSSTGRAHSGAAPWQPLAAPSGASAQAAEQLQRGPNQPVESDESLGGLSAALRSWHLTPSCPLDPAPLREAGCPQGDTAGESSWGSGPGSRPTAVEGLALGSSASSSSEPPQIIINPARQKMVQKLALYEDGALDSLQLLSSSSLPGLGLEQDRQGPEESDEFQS
Insulin-like growth factor 1 receptor (Homo sapiens), sequence (P08069 31-736 limits assumed): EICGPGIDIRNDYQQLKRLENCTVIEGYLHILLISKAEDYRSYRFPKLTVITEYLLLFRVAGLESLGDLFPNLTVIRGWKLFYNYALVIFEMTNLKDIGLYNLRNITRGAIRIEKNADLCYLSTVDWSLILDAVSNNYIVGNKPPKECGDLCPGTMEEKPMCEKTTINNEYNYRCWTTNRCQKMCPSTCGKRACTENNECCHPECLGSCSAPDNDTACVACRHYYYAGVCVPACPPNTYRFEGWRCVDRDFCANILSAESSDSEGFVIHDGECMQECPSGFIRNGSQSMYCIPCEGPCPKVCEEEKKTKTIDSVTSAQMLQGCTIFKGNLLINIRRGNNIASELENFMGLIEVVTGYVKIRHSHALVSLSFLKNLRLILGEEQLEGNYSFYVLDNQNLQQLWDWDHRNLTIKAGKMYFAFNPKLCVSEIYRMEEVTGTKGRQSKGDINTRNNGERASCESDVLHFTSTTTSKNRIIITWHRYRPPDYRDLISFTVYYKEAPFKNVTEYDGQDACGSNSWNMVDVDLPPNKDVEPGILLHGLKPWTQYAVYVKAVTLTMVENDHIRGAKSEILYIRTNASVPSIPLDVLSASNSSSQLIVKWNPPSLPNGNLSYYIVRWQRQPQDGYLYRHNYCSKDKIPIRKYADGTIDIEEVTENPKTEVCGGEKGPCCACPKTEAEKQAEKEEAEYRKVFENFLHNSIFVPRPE
Insulin-like growth factor 1 receptor (Homo sapiens), sequence (P08069 741-1367 limits assumed): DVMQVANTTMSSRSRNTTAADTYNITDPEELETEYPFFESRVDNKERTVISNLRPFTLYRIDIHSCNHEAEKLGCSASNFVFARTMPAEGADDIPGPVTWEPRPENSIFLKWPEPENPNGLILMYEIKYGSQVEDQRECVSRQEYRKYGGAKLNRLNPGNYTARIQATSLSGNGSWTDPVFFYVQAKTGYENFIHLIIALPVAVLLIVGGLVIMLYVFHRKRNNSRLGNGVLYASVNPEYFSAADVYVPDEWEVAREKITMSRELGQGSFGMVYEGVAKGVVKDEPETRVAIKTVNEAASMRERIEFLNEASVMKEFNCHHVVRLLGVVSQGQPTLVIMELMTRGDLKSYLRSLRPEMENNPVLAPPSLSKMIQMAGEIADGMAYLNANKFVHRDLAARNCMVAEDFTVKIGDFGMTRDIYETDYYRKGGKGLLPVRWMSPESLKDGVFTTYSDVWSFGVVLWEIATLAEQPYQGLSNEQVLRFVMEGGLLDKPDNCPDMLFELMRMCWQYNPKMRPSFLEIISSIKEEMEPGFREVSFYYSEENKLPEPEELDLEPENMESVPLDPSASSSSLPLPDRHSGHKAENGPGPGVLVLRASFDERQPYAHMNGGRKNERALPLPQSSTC

For the compound `CNc1cc(Oc2cc(C(=O)Nc3cc(N4CCN(C)CC4)cc(C(F)(F)F)c3)ccc2C)ncn1`, the values for the inhibition in experiment [1] and in experiment [2] were 17.7% and -6.9%, respectively.
Take `CCN1CCN(Cc2ccc(NC(=O)c3ccc(C)c(/C=C/c4cnc5[nH]ccc5c4OC)c3)cc2C(F)(F)F)CC1`: in experiment [3], the residual activity came out at 100%.
With `CCN1CCN(Cc2ccc(NC(=O)c3ccc(C)c(Oc4ccnc5[nH]ccc45)c3)cc2C(F)(F)F)CC1`, the inhibition in experiment [4] stood at 6.7%; in experiment [7], 8.4%; in [8], 33%; in [9], 0.9%. In addition, the percent of control in [5] was found to be 0.95%. Besides, the inhibition entry in experiment [6] was “inactive”.

The record behind these values is ChEMBL document CHEMBL5696442, “Discovery of type II inhibitors of TGFβ-activated kinase 1 (TAK1) and mitogen-activated protein kinase kinase kinase kinase 2 (MAP4K2)” (J Med Chem, 2015).
